Measured values reported in ChEMBL document CHEMBL4130599, “VU6010608, a Novel mGlu7 NAM from a Series of N-(2-(1H-1,2,4-Triazol-1-yl)-5-(trifluoromethoxy)phenyl)benzamides” (ACS Med Chem Lett, 2017).
Values belong to the compound of their own block, whether it stands above or below them. Calls of active or inactive are those of the source. The rule behind the calls is not given here.

Key:
[1] = Protein binding in mouse plasma assessed as unbound fraction measured after 4 hrs by LC-MS/MS based equilibrium dialysis method; format: ADME, cell-free
[2] = Protein binding in rat plasma assessed as unbound fraction measured after 4 hrs by LC-MS/MS based equilibrium dialysis method; format: ADME, cell-free
[3] = Brain to plasma partition coefficient, Kp of the compound in cannulated Sprague-Dawley rat at 0.2 to 0.25 mg/kg, iv administered as cassette dose measured after 0.25 hrs by LC-MS/MS analysis; format: ADME, organism-based; details: brain and plasma
[4] = Unbound brain to plasma concentration ratio in cannulated Sprague-Dawley rat at 0.2 to 0.25 mg/kg, iv administered as cassette dose measured after 0.25 hrs by LC-MS/MS analysis; format: ADME, organism-based; details: brain and plasma, read-out: K(p,uu,brain)
[5] = Protein binding in rat brain assessed as unbound fraction measured after 6 hrs by LC-MS/MS based equilibrium dialysis method; format: ADME, tissue-based
[6] = molecular target: Metabotropic glutamate receptor 7 (Rattus norvegicus, UniProt P35400); assay: Negative allosteric modulation of rat mGlu7 expressed in HEK cells co-expressing Galpha15 assessed as reduction in L-AP4-induced intracellular calcium flux pretreated for 142 secs followed by glutamate addition and subsequent stimulation of L-AP4 for 40 secs by Fluo-4 AM dye based fluorescence assay; format: functional, cell-based
Mus musculus = assay: Toxicity in C57/Bl6 mouse at 100 mg/kg, ip; format: organism-based; details: in vivo
[7] = molecular target: T1, Metabotropic glutamate receptor 8 (Rattus norvegicus, UniProt P70579); assay: Agonist activity at rat mGlu8 expressed in HEK cells co-expressing Galpha15 measured after 142 secs by Fluo-4 AM dye based calcium flux assay; format: functional, cell-based
[8] = Unbound drug level in C57/Bl6 mouse plasma assessed as unbound fraction at 30 mg/kg, ip by LC-MS/MS analysis; format: ADME, organism-based; details: in vivo
[9] = Drug metabolism in rat hepatic S9 fraction assessed as amide hydrolysis after 60 mins in presence of NADPH/UDPGA/PAPS by LC/MS analysis; format: ADME, subcellular, Liver; details: s9, 1 h
[10] = Half life in cannulated Sprague-Dawley rat at 0.2 to 0.25 mg/kg, iv administered as cassette dose by LC-MS/MS analysis; format: ADME, organism-based; details: in vivo
[11] = molecular target: T2, Metabotropic glutamate receptor 6 (Homo sapiens, UniProt O15303); assay: Agonist activity at mGlu6 receptor (unknown origin); format: functional
[12] = Drug level in C57/Bl6 mouse brain at 30 mg/kg, ip by LC-MS/MS analysis; format: ADME, organism-based; details: in vivo, read-out: Drug uptake
[13] = Brain to plasma partition coefficient, Kp of the compound in C57/Bl6 mouse at 30 mg/kg, ip measured after 0.5 hrs by LC-MS/MS analysis; format: ADME, organism-based; details: brain and plasma
[14] = Brain to plasma partition coefficient, Kp of the compound in C57/Bl6 mouse at 100 mg/kg, ip measured after 0.5 hrs by LC-MS/MS analysis; format: ADME, organism-based; details: brain and plasma
[15] = Drug level in C57/Bl6 mouse brain at 100 mg/kg, ip by LC-MS/MS analysis; format: ADME, organism-based; details: in vivo, read-out: Drug uptake
[16] = molecular target: T3, Metabotropic glutamate receptor 5 (Homo sapiens, UniProt P41594); assay: Agonist activity at mGlu5 receptor (unknown origin); format: functional
Brain = assay: Blockade of high-frequency stimulation-induced long-term potentiation at SC-CA1 synapses in C57BL/6J mouse brain slices at 10 uM pretreated for 10 mins followed by high-frequency stimulation measured up to 60 mins; format: functional, tissue-based
[17] = Brain to plasma partition coefficient, Kp of the compound in C57/Bl6 mouse at 10 mg/kg, ip measured after 0.5 hrs by LC-MS/MS analysis; format: ADME, organism-based; details: brain and plasma
[18] = Drug level in C57/Bl6 mouse brain at 10 mg/kg, ip by LC-MS/MS analysis; format: ADME, organism-based; details: in vivo, read-out: Drug uptake
[19] = molecular target: T3, Metabotropic glutamate receptor 5; assay: Antagonist activity at mGlu5 receptor (unknown origin); format: functional
[20] = molecular target: T4, Metabotropic glutamate receptor 1 (Homo sapiens, UniProt Q13255); assay: Agonist activity at mGlu1 receptor (unknown origin); format: functional
[21] = molecular target: T5, Metabotropic glutamate receptor 4 (Homo sapiens, UniProt Q14833); assay: Agonist activity at human mGlu4 expressed in CHO cells co-expressing Gqi5 after 142 secs by Fluo-4AM dye based calcium flux assay; format: functional, cell-based
[22] = molecular target: T6, Metabotropic glutamate receptor 3 (Homo sapiens, UniProt Q14832); assay: Agonist activity at mGlu3 receptor (unknown origin); format: functional
[23] = Drug level in C57/Bl6 mouse plasma at 10 mg/kg, ip by LC-MS/MS analysis; format: ADME, organism-based; details: in vivo
[24] = molecular target: T2, Metabotropic glutamate receptor 6; assay: Antagonist activity at mGlu6 receptor (unknown origin); format: functional
[25] = molecular target: T4, Metabotropic glutamate receptor 1; assay: Antagonist activity at mGlu1 receptor (unknown origin); format: functional
[26] = Unbound brain to plasma concentration ratio in C57/Bl6 mouse at 100 mg/kg, ip measured after 0.5 hrs by LC-MS/MS analysis; format: ADME, organism-based; details: brain and plasma, read-out: K(p,uu,brain)
[27] = Unbound drug level in C57/Bl6 mouse brain assessed as unbound fraction at 30 mg/kg, ip by LC-MS/MS analysis; format: ADME, organism-based; details: in vivo
[28] = Volume of distribution at steady state in cannulated Sprague-Dawley rat at 0.2 to 0.25 mg/kg, iv administered as cassette dose by LC-MS/MS analysis; format: ADME, organism-based; details: in vivo, read-out: Vdss
[29] = Unbound drug level in C57/Bl6 mouse brain assessed as unbound fraction at 10 mg/kg, ip by LC-MS/MS analysis; format: ADME, organism-based; details: in vivo
[30] = Unbound brain to plasma concentration ratio in C57/Bl6 mouse at 10 mg/kg, ip measured after 0.5 hrs by LC-MS/MS analysis; format: ADME, organism-based; details: brain and plasma, read-out: K(p,uu,brain)
[31] = Unbound drug level in C57/Bl6 mouse plasma at 10 mg/kg, ip by LC-MS/MS analysis; format: ADME, organism-based; details: in vivo
[32] = Unbound drug level in C57/Bl6 mouse plasma assessed as unbound fraction at 100 mg/kg, ip by LC-MS/MS analysis; format: ADME, organism-based; details: in vivo
[33] = molecular target: T1, Metabotropic glutamate receptor 8; assay: Antagonist activity at rat mGlu8 expressed in HEK cells co-expressing Galpha15 assessed as reduction in L-AP4-induced intracellular calcium flux pretreated for 142 secs followed by glutamate addition and subsequent stimulation of L-AP4 for 40 secs by Fluo-4 AM dye based fluorescence assay; format: functional, cell-based
[34] = Drug level in C57/Bl6 mouse plasma at 30 mg/kg, ip by LC-MS/MS analysis; format: ADME, organism-based; details: in vivo
[35] = Clearance in cannulated Sprague-Dawley rat at 0.2 to 0.25 mg/kg, iv administered as cassette dose by LC-MS/MS analysis; format: ADME, organism-based; details: in vivo
[36] = Unbound drug level in C57/Bl6 mouse brain assessed as unbound fraction at 100 mg/kg, ip by LC-MS/MS analysis; format: ADME, organism-based; details: in vivo
[37] = molecular target: T7, Metabotropic glutamate receptor 2 (Homo sapiens, UniProt Q14416); assay: Agonist activity at mGlu2 receptor (unknown origin); format: functional
[38] = molecular target: T5, Metabotropic glutamate receptor 4; assay: Antagonist activity at human mGlu4 expressed in CHO cells co-expressing Gqi5 assessed as reduction in L-AP4-induced intracellular calcium flux pretreated for 142 secs followed by glutamate addition and subsequent stimulation of L-AP4 for 40 secs by Fluo-4 AM dye based fluorescence assay; format: functional, cell-based
[39] = Oral bioavailability in cannulated Sprague-Dawley rat; format: ADME, organism-based; details: in vivo
[40] = Unbound brain to plasma concentration ratio in C57/Bl6 mouse at 30 mg/kg, ip measured after 0.5 hrs by LC-MS/MS analysis; format: ADME, organism-based; details: brain and plasma, read-out: K(p,uu,brain)
[41] = molecular target: T6, Metabotropic glutamate receptor 3; assay: Antagonist activity at mGlu3 receptor (unknown origin); format: functional
[42] = molecular target: T7, Metabotropic glutamate receptor 2; assay: Antagonist activity at mGlu2 receptor (unknown origin); format: functional

T5 sequence (Q14833 whole entry): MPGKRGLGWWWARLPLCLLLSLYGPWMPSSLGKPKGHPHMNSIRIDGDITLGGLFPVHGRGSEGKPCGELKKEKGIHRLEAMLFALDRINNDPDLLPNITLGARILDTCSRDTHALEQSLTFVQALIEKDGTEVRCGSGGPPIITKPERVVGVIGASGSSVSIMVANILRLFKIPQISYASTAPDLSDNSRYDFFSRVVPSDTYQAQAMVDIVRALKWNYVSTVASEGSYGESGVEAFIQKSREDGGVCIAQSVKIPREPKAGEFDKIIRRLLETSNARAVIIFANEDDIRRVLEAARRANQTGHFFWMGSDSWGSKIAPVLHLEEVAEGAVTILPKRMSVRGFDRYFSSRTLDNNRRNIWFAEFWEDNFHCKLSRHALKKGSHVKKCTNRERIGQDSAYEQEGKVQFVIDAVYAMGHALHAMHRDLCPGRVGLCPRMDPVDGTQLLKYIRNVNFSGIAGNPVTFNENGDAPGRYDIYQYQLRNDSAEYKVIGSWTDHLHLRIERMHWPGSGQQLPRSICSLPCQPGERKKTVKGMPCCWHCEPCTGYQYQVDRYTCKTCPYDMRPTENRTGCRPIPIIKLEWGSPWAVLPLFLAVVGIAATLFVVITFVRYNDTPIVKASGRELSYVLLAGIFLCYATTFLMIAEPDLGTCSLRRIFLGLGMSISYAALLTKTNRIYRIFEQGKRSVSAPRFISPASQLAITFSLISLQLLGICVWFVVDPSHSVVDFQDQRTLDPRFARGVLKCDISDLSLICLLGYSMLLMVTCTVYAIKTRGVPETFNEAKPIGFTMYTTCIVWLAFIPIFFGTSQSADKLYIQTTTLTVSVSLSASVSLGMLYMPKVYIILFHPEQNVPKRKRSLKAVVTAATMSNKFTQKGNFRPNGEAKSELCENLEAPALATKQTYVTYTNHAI
T1 sequence (P70579 whole entry): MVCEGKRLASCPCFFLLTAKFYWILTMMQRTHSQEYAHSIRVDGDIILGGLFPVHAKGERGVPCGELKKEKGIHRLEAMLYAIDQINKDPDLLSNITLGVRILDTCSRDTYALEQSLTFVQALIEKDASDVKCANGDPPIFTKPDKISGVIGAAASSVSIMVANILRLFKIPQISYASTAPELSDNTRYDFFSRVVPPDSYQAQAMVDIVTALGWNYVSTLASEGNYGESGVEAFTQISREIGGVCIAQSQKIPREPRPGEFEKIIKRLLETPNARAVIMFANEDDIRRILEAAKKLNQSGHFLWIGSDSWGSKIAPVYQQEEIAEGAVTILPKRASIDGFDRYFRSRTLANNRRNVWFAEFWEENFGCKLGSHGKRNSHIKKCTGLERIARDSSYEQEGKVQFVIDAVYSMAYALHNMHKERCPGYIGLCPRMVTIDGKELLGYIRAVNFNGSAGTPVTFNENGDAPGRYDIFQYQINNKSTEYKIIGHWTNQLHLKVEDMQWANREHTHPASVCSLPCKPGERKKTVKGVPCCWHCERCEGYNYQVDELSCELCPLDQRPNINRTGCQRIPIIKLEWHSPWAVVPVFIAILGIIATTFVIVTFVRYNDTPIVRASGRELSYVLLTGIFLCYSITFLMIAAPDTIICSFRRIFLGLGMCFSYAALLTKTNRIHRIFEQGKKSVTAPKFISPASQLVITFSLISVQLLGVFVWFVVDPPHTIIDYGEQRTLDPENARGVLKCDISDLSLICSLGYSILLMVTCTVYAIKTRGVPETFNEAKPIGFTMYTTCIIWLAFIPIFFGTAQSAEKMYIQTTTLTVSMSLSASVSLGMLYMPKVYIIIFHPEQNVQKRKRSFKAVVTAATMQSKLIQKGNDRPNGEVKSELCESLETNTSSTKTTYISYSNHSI
Metabotropic glutamate receptor 7, sequence (P35400 whole entry): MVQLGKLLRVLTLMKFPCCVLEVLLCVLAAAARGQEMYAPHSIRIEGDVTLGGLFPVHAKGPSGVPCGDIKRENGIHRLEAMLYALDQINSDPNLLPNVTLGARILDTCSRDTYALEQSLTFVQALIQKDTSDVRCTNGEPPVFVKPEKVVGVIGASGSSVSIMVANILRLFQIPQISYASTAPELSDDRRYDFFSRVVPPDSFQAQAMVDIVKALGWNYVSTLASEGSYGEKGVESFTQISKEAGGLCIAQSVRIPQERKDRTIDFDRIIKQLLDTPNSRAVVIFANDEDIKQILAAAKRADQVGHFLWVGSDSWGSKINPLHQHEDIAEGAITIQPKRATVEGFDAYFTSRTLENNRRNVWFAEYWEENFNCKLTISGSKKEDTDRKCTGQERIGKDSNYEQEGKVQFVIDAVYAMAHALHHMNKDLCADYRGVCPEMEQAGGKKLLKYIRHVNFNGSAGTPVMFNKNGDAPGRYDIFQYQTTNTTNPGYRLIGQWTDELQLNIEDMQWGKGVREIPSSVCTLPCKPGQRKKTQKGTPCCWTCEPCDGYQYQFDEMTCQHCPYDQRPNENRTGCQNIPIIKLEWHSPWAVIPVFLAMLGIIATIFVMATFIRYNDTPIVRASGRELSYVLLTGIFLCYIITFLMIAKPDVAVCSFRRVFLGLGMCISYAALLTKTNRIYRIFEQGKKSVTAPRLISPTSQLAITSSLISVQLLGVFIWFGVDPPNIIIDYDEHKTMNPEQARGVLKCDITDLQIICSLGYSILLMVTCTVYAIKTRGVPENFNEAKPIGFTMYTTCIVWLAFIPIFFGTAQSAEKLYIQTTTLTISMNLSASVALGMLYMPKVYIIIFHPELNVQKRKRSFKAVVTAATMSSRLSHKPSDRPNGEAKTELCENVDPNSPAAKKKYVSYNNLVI
T3 sequence (P41594 whole entry): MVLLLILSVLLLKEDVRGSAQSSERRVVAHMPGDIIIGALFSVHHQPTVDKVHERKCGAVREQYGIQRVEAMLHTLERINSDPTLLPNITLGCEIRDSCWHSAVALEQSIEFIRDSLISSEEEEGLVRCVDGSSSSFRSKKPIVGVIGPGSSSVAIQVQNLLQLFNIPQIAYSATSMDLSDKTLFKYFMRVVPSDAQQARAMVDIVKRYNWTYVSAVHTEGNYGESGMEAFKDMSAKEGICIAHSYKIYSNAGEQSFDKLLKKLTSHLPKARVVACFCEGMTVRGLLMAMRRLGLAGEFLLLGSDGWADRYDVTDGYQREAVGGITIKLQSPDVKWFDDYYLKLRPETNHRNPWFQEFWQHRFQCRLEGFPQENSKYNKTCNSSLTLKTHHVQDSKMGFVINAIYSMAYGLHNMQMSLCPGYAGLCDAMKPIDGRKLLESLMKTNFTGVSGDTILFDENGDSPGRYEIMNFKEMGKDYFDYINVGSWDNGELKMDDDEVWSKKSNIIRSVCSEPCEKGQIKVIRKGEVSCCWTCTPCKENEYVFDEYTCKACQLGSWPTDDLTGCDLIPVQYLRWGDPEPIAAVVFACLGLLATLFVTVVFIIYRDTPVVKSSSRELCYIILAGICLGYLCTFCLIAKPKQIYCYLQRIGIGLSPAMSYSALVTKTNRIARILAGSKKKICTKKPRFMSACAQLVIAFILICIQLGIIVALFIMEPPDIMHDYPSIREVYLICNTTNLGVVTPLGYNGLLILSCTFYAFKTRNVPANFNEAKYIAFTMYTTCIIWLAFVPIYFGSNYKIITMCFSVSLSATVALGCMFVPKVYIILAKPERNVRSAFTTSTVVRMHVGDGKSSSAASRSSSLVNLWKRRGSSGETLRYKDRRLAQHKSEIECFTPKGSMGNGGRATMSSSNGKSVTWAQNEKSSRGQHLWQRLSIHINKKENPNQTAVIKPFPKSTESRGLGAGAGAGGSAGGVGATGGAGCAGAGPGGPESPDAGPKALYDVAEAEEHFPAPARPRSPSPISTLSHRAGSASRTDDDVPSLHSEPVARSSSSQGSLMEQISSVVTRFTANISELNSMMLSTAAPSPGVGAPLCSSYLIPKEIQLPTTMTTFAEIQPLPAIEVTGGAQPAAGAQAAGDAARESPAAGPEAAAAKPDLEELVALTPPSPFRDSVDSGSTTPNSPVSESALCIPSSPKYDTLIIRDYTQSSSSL
T7 sequence (Q14416 whole entry): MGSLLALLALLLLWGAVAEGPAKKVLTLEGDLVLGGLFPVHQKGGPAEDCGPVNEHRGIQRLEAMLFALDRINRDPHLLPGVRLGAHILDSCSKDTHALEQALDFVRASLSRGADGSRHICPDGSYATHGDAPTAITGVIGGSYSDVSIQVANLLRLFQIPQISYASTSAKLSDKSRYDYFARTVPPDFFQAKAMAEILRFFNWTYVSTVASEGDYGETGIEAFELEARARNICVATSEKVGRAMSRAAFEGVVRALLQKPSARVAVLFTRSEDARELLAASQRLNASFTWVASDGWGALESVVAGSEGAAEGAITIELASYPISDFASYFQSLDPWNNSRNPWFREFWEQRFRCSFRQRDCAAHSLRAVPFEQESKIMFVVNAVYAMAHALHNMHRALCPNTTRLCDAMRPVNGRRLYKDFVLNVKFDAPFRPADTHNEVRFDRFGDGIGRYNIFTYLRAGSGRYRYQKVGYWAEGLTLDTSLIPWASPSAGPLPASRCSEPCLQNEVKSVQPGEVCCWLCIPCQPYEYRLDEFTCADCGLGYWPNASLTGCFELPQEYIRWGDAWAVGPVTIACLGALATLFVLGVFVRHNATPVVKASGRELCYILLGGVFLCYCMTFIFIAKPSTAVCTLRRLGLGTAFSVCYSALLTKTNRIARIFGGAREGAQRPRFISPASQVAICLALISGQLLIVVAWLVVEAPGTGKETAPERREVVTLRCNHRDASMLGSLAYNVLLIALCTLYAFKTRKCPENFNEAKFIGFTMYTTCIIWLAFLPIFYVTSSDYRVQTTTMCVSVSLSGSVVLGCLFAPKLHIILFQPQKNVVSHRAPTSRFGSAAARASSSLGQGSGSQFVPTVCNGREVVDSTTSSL

- fraction unbound at 4 h [1]: 0.019
- fraction unbound at 4 h [2]: 0.017
- Kp at 0.25 h [3]: 1.9
- Kp uu at 0.25 h [4]: 1
- fraction unbound at 6 h [5]: 0.009
Compound: CCCOc1ccc(C(=O)Nc2cc(OC(F)(F)F)ccc2-n2cncn2)cc1OC

- fraction unbound at 4 h [1]: 0.063
- fraction unbound at 4 h [2]: 0.065
- Kp at 0.25 h [3]: 4.4
- Kp uu at 0.25 h [4]: 0.89
- fraction unbound at 6 h [5]: 0.013
Compound: COc1cc(C(=O)Nc2cc(OC(F)(F)F)ccc2-n2cncn2)ccc1OC(C)C

- IC50 [6]: 0.676 µM
Compound: CCc1nc2c(o1)CC(c1ccc(C)cc1C)CC2=O (stereo not given)
- Activity (Mus musculus): Non-Toxic

- IC50 [6]: 1.4 µM
Compound: COc1cc(C(=O)Nc2cc(OC(F)(F)F)ccc2-n2cncn2)ccc1OC1CCCC1

- fraction unbound at 4 h [1]: 0.039
- IC50 [6]: 0.71 µM
- fraction unbound at 4 h [2]: 0.052
- Kp at 0.25 h [3]: 5.8
- Kp uu at 0.25 h [4]: 1.5
- fraction unbound at 6 h [5]: 0.013
Compound: COc1cc(C(=O)Nc2cc(OC(F)(F)F)ccc2-n2cncn2)ccc1OC1CC1

- EC50 [7]: > 10 µM
- fraction unbound at 4 h [1]: 0.178
- Cp(f) [8]: 71.5 nM
- Drug metabolism [9]: Metabolite_Detected
- half-life [10]: 1.73 h
- EC50 [11]: > 10 µM
- concentration [12]: 952 nM
- Kp at 0.5 h [13]: 2.36
- Kp at 0.5 h [14]: 2
- concentration [15]: 1550 nM
- EC50 [16]: > 10 µM
- Kp at 0.5 h [17]: 2.01
- concentration [18]: 380 nM
- IC50 [19]: > 10 µM
- EC50 [20]: > 10 µM
- EC50 [21]: > 10 µM
- EC50 [22]: > 10 µM
- concentration [23]: 180 nM
- IC50 [24]: > 10 µM
- Fu ([2]; 4 h): 0.244
- IC50 [25]: > 10 µM
- Kp uu at 0.5 h [26]: 0.43
- Kp at 0.25 h [3]: 3.4
- Drug uptake(free) [27]: 36.2 nM
- Vd [28]: 6.2 L/kg
- Drug uptake(free) [29]: 14.3 nM
- Kp uu at 0.5 h [30]: 0.44
- Cp(f) [31]: 32.5 nM
- Kp uu at 0.25 h [4]: 0.48
- Cp(f) [32]: 137 nM
- IC50 [33]: > 10 µM
- concentration [34]: 402 nM
- clearance [35]: 64.2 mL/min/kg
- Drug uptake(free) [36]: 59 nM
- EC50 [37]: > 10 µM
- IC50 [38]: > 10 µM
- bioavailability [39]: 18.9%
- Kp uu at 0.5 h [40]: 0.51
- fraction unbound at 6 h [5]: 0.034
- IC50 [41]: > 10 µM
- IC50 [42]: > 10 µM
Compound: COc1ccc(C(=O)Nc2cc(OC(F)(F)F)ccc2-n2cncn2)cc1OC
- Activity (Brain): Active
- Activity (Mus musculus): Non-Toxic

- IC50 [6]: 5.8 µM
- IC50 [33]: > 30 µM
- IC50 [38]: > 30 µM
Compound: COc1ccc(C(=O)Nc2cc(Cl)ccc2-n2cncn2)cc1OC

- fraction unbound at 4 h [1]: 0.086
- fraction unbound at 4 h [2]: 0.072
- Kp at 0.25 h [3]: 3.5
- Kp uu at 0.25 h [4]: 0.83
- fraction unbound at 6 h [5]: 0.017
Compound: CCOc1ccc(C(=O)Nc2cc(OC(F)(F)F)ccc2-n2cncn2)cc1OC
